US20240252660A1, “CARGO MOLECULE TRANSDUCTION DOMAIN RMMR1, VARIANT THEREOF, RECOMBINANT CARGO MOLECULE, AND METHOD FOR TRANSDUCING CARGO MOLECULE USING SAME” (REMEDI CO., LTD., priority 2021, published 2024)
Where no end group is shown, it is not given here.

Assays:
Format in all cases: cell-based
[1] = system: cells; assay: FACS experiment to verify self-penetration efficacy of FITC peptides (summary statement); settings: FITC-labelled peptide, cells not specified
Source text: The present inventors synthesized FITC and conducted a FACS experiment to verify its self-penetration efficacy using the cell-penetrating peptide RMMR1 derived from the human MRPL15 protein.

[2] = system: RAW264.7 cells; assay: Antigen-presenting cell penetration efficiency of FITC-attached peptide; settings: 2.5 uM, 2 hours, FITC fluorescence
Protocol: (§1) HaCaT, 3T3, and B16F10 cells were cultured in cell culture medium supplemented with 10% of fetal bovine serum (FBS) and antibiotic solution (100 units/ml of penicillin, 100 μg/ml of streptomycin) in DMEM medium. Cells were cultured under conditions maintained at 37° C., 95% humidity, and 5% CO2, and when the cells were 70-80% adhered to the culture dish, they were treated with trypsin-EDTA and subcultured. HaCaT cells were distributed and cultured from Professor Kim Tae Yoon of the College of Medicine, The Catholic University of Korea, 3T3 and B16F10 cells were distributed and cultured from the Seoul National University Cell Line Bank. RAW264.7 cells were distributed and cultured from the laboratory of Professor Kim Sang-Beom, College of Pharmacy, Sahmyook University.
In order to identify the penetration efficiency of RMMR1 into antigen-presenting cells, the transduction efficiency was confirmed using cell line RAW264.7 using a synthetic peptide attached with fluorescent FITC. In the case of cells without FITC attached, it is difficult to identify the permeability of the peptide, so attaching fluorescent FITC makes it easier to identify cell permeability. Each cell line was treated with FITC-attached peptides RMMR1-FITC (SEQ. NO. 1) and TAT-FITC at the same concentration of 2.5 uM for 2 hours.

[3] = system: B16F10 cells; assay: RMMR1-FITC synthetic peptide cell penetration efficiency (fluorescence value) in B16F10; settings: 2.5 uM, 2 hours
Protocol: as §1
(§2) In order to evaluate the cell permeability of RMMR1 in HaCaT, 3T3, B16F10 cells, 1×10^5 of HaCaT cells were attached to a 24-well plate 12 hours in advance. Thereafter, the cells were washed using serum-free DMEM medium and then treated with 2.5 uM of protein in serum-free medium for 2 hours. After 2 hours, the cells were washed a total of 3 times with serum-free medium, and then the cells were detached from the plate by treatment with 150 ul of trypsin, and then neutralized by adding 850 ul of serum-containing medium. […]

[4] = system: 3T3 cells; assay: RMMR1-FITC synthetic peptide cell penetration efficiency (fluorescence value) in 3T3; settings: 2.5 uM, 2 hours
Protocol: as §1, §2

Substance | cell penetration compared with HIV-Tat peptide (FITC, FACS) [1] | level of cell penetration compared with control TAT-FITC peptide [2] | cell penetration level compared with control TAT-FITC peptide [3] | cell penetration level compared with control TAT-FITC peptide [4]
ERRPRGRRRGRKC (listed as Homo sapiens) [RMMR1, 13 amino acid cargo molecule transduction domain derived from human MRPL15] | penetrated cells much better than the HIV-Tat peptide |  |  | 
RMMR1-FITC: RMMR1 (SEQ ID NO: 1) synthetic peptide attached with fluorescent FITC (ERRPRGRRRGRKC; also: FITC label, attachment site not given here; listed as Homo sapiens) |  | higher level of cell penetration compared to the control TAT-FITC peptide | significantly higher cell penetration level than the control TAT-FITC peptide | significantly higher cell penetration level than the control TAT-FITC peptide
